According to the Kinase Knowledgebase extract (Sharma et al. 2016):
In brackets after ≈: the same amount, converted by molar mass.

Biological target: EGFR (UniProt P00533)
Sequence (P00533 whole entry, looked up): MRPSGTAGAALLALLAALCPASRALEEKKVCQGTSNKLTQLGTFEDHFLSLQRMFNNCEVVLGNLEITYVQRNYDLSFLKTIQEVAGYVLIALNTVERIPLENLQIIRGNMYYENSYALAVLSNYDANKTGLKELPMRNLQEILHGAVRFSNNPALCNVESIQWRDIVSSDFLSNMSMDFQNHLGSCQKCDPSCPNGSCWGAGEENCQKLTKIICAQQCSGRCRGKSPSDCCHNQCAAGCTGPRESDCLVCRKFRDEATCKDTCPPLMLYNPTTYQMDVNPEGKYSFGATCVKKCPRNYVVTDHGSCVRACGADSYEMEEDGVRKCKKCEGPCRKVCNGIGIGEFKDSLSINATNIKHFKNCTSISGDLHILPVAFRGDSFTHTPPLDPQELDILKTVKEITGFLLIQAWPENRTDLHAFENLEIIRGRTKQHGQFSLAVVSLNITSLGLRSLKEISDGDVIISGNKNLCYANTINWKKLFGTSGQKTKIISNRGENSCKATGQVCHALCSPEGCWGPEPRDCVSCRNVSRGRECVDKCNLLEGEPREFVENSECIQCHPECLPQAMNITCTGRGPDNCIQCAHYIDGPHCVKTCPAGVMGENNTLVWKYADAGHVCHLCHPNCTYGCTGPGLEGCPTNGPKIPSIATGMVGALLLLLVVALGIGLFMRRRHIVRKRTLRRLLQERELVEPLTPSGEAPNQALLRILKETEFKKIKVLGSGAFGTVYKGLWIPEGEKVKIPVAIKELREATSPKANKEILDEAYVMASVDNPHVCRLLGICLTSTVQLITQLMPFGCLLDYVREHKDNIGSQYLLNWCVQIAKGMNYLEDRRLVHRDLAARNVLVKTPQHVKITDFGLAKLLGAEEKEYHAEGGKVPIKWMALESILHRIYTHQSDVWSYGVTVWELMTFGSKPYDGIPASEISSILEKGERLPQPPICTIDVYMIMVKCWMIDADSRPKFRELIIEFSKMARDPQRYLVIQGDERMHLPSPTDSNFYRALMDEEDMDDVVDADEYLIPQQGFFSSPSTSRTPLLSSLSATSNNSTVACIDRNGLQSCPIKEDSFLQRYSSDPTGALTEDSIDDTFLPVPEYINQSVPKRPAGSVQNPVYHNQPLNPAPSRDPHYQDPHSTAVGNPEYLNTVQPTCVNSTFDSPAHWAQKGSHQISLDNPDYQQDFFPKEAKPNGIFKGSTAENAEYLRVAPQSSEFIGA

| SMILES | IC50 [µg/mL] |
| --- | --- |
| CN(c1cccc(Cl)c1)c1ncnc(Nc2ccc(F)c(C(F)(F)F)c2)n1 | 0.4 to 2.4 (≈ 1.01 to 6.03 µM) |
| COc1cc(Nc2ncnc(Nc3ccc4c(c3)CCC4)n2)cc(OC)c1OC | 0.4 to 2.4 (≈ 1.02 to 6.1 µM) |
| CCOc1cccc(Nc2ncnc(N3CCCc4cc(C)ccc43)n2)c1 | < 0.4 |
| Nc1nc2ccccc2n1-c1ncnc(N2C(=O)c3ccccc3C2=O)n1 | > 4.5 |
| COc1cc(Nc2ncnc(Nc3ccc4cn[nH]c4c3)n2)cc(OC)c1OC | 0.4 to 2.4 (≈ 1.02 to 6.1 µM) |
| COc1cc(Nc2ncnc(Nc3cccc(Oc4ccccc4)c3)n2)cc(OC)c1OC | 0.4 to 2.4 (≈ 0.898 to 5.39 µM) |
| CCN(CC)CCOc1cc(Nc2ncnc(-n3c(N)nc4ccccc43)n2)ccc1OC | > 4.5 |
| O=C(O)Cc1cccc(Nc2ncnc(-c3cccnc3Nc3ccccc3)n2)c1 | 0.4 to 2.4 (≈ 1 to 6.02 µM) |
| COc1cc(Nc2ncnc(-c3cccc(Cl)c3)n2)cc(OC)c1OC | > 4.5 |
| COc1cccc(Nc2ncnc(-c3ccccc3)n2)c1 | > 4.5 |
| COc1ccc(Nc2ncnc(Nc3cc(-c4ccccc4)n[nH]3)n2)cc1OC | 0.4 to 2.4 (≈ 1.03 to 6.16 µM) |
| COc1ccc(Nc2ncnc(NCCCN3CCCCC3C)n2)cc1OC (centres undefined) | > 4.5 |
| COc1cc(Nc2ncnc(-c3ccc(N4CCOCC4)nc3)n2)cc(OC)c1OC | > 4.5 |
| c1ccc(Cn2ncc3cc(Nc4ncnc(NCCN5CCCC5)n4)ccc32)cc1 | > 4.5 |
| COCCOc1cc(Nc2ncnc(Nc3ccc(C)c(O)c3)n2)ccc1OC | < 0.4 |
| COc1cc(Nc2ncnc(-c3cc4ccccc4s3)n2)cc(OC)c1OC | > 4.5 |
| COc1cc(Nc2ncnc(-n3ccc4cc(Cl)ccc43)n2)cc(OC)c1OC | > 4.5 |
| COc1cc(Nc2ncnc(-n3c(NCc4ncc[nH]4)nc4ccccc43)n2)cc(OC)c1OC | > 4.5 |
| COc1cc(Nc2ncnc(Nc3[nH]ncc3-c3cccc(Cl)c3)n2)cc(OC)c1OC | > 4.5 |
| COc1cc(Nc2ncnc(-c3c(O)n(C)c4ccccc34)n2)cc(OC)c1OC | > 4.5 |
| CN(c1cccc(Cl)c1)c1ncnc(Nc2ccc3c(cnn3Cc3ccccc3)c2)n1 | 0.4 to 2.4 (≈ 0.905 to 5.43 µM) |
| COc1cc(Nc2ncnc(-n3c(NCc4ccc(N(C)C)cc4)nc4ccccc43)n2)cc(OC)c1OC | 2.4 to 3.5 (≈ 4.56 to 6.65 µM) |
| COc1cccc(Nc2ncnc(-n3c(N)nc4ccccc43)n2)c1 | 2.4 to 3.5 (≈ 7.2 to 10.5 µM) |
| COc1cc(Nc2ncnc(Nc3ccc4c(c3)OCO4)n2)cc(OC)c1OC | 0.4 to 2.4 (≈ 1.01 to 6.04 µM) |
| Fc1ccc(CNc2ncccc2-c2ncnc(Nc3ccc(N4CCOCC4)cc3)n2)cc1 | > 4.5 |
| COc1cc(Nc2ncnc(-c3cccnc3NCCC(C)(C)C)n2)cc(OC)c1OC | > 4.5 |
| CCOc1cccc(Nc2ncnc(Nc3cc(-c4ccc(C(=O)OC)cc4)n[nH]3)n2)c1 | > 4.5 |

| SMILES | IC50 [µg/mL] |
| --- | --- |
| COc1cc(Nc2ncnc(Nc3ccc(C)cc3)n2)cc(OC)c1OC | < 0.4 |
| COc1cc(Nc2ncnc(-c3cccnc3NC(C)C)n2)cc(OC)c1OC | > 4.5 |
| COC(=O)c1ccc(-c2cc(Nc3ncnc(NCc4ccco4)n3)[nH]n2)cc1 | > 4.5 |
| COc1cc(Nc2ncnc(-c3cccnc3Nc3cccc(Oc4ccccc4)c3)n2)cc(OC)c1OC | > 4.5 |
| COc1ccc(Nc2ncnc(Nc3ccc(Br)cc3F)n2)cc1OC | 2.4 to 3.5 (≈ 5.71 to 8.33 µM) |
| Nc1nc2ccccc2n1-c1ncnc(Nc2cccc(-c3cnco3)c2)n1 | 0.4 to 2.4 (≈ 1.08 to 6.48 µM) |
| COc1ccc(Nc2ncnc(-c3ccccc3)n2)cc1 | > 4.5 |
| CCOC(=O)Cc1ccc(Nc2ncnc(Nc3cc(-c4ccco4)n[nH]3)n2)cc1 | 0.4 to 2.4 (≈ 0.987 to 5.92 µM) |
| NC(=O)c1ccc(Nc2ncnc(-c3cccnc3NCc3ccccc3)n2)cc1 | 0.4 to 2.4 (≈ 1.01 to 6.04 µM) |
| CNS(=O)(=O)Cc1ccc(Nc2ncnc(Nc3cc(-c4ccc(C(=O)OC)cc4)n[nH]3)n2)cc1 | 2.4 to 3.5 (≈ 4.85 to 7.08 µM) |
| CNS(=O)(=O)Cc1ccc(Nc2ncnc(Nc3ccc4c(cnn4Cc4ccccc4)c3)n2)cc1 | 0.4 to 2.4 (≈ 0.799 to 4.79 µM) |
| CCC(O)CNc1ncnc(Nc2ccc(OC)c(OC)c2)n1 (centres undefined) | > 4.5 |
| O=c1[nH]c2ccccc2n1-c1ncnc(Nc2cccc(-c3cnco3)c2)n1 | 0.4 to 2.4 (≈ 1.08 to 6.46 µM) |
| COc1cc(Nc2ncnc(Nc3cc(-c4ccco4)n[nH]3)n2)cc(OC)c1OC | < 0.4 |
| Cc1cccc(Nc2ncnc(Nc3cccc(Br)c3)n2)c1 | < 0.4 |
| COCCNc1ncnc(Nc2cc(-c3ccc(C(=O)OC)cc3)n[nH]2)n1 | > 4.5 |
| COc1cc(Nc2ncnc(-c3cccnc3Nc3ccccc3)n2)cc(OC)c1OC | > 4.5 |
| COc1cc(Nc2ncnc(Nc3ccc4ccccc4c3)n2)cc(OC)c1OC | 0.4 to 2.4 (≈ 0.991 to 5.95 µM) |
| COc1cc(C)c(Nc2ncnc(-n3c(N)nc4ccccc43)n2)cc1OC | > 4.5 |
| COc1cc(Nc2ncnc(Nc3ccc(N4CCCCC4)cc3)n2)cc(OC)c1OC | 0.4 to 2.4 (≈ 0.916 to 5.5 µM) |
| CC(C)(C)OC(=O)NCc1cccc(Nc2ncnc(Nc3cc(C(C)(C)C)n[nH]3)n2)c1 | > 4.5 |
| COc1cc(Nc2ncnc(N3CCCc4cc(C)ccc43)n2)cc(OC)c1OC | < 0.4 |
| COc1ccc([C@H](C)Nc2nc3ccccc3n2-c2ncnc(Nc3cc(OC)c(OC)c(OC)c3)n2)cc1 | > 4.5 |
| COc1cc(Nc2ncnc(-n3c(NCc4ccccc4F)nc4ccccc43)n2)cc(OC)c1OC | > 4.5 |
| COc1cc(Nc2ncnc(Nc3ccccc3C)n2)cc(OC)c1OC | 2.4 to 3.5 (≈ 6.53 to 9.53 µM) |
| COc1cc(Nc2ncnc(Nc3cc(OC)c(OC)c(OC)c3)n2)cc(OC)n1 | 2.4 to 3.5 (≈ 5.79 to 8.45 µM) |
| COc1cc(CNc2ncnc(Nc3cc(-c4ccco4)n[nH]3)n2)cc(OC)c1OC | > 4.5 |
